Assay results taken from patent US11007196B1, “Method for preparing composition of matter comprising fluorouracil and zinc-mercury-selenium quantum dot” (priority 2020, dated 2021).

Test system: human gastric cancer MGC-803 cells
Description: Pharmaceutical reagents were divided into four groups including ZnHgSe quantum dot group, DMF group, DMF-QD group and blank control group. Human gastric cancer MGC-803 cells in exponential phase were digested with trypsin, followed by addition of medium containing 10% fetal bovine serum to make a single cell suspension. The cells were seeded in a 96-well cell culture plate (100 μL of cell suspension was added to each well, containing 9×10^3 cells) and cultured in an incubator of 37° C. and 5% CO2 for 24 h until the cells adhered to the wall of the 96-well plate. Three groups of drug solutions with concentration gradients were added (ZnHgSe quantum dot gradient: 2400 μg·mL^−1, 1200 μg·mL^−1, 600 μg mL^−1, 300 μg·mL^−1, 150 μg·mL^−1, and 75 μg·mL^−1; DMF gradient: 800 μg mL^−1, 400 μg·mL^−1, 200 μg·mL^−1, 100 μg·mL^−1, 50 μg·mL^−1, and 25 μg·mL^−1; corresponding DMF-QD gradient was determined according to DMF concentration by equivalent conversion). Each group was repeated with 6 wells, with an additional zero-adjustment well and a control well. […] The absorbance value OD of each well was measured by an enzyme-linked immunosorbent detector at a wavelength of 490 nm, and the cell growth inhibition rate (IC50) was calculated. IC50 value was calculated according to the modified Karber's method: […]

Substance: dextran-magnetic layered double hydroxide-fluorouracil [DMF]
- cytotoxicity per unit mass relative to quantum dots: about 2.6 times
